Experimental data published in patent publication US11718628B2, “SREBP inhibitors comprising a 6-membered central ring” (Capulus Therapeutics, LLC, priority 2018, dated 2023).

Tests used:
[1] = In vivo pharmacokinetic properties in rats (IV and PO); set-up: species or system male Sprague Dawley rats
How it was run: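 Male Sprague Dawley rats received 2.00 mg/kg IV via the tail vein, with plasma sampled from a cannulated jugular vein from 0.083 to 24 h. Oral dosing was 10 mg/kg in rats or C57BL/6J mice, sampled at 0.25-24 h by jugular cannula (rats) or retro-orbital plexus (mice).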

[2] = In vivo pharmacokinetic properties in mice (IV and PO); set-up: species or system C57BL/6J mice; conditions: mouse, in vivo
How it was run: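 Male C57BL/6J mice received 10 mg/kg orally; plasma sampled by retro-orbital capillary at 0.25–24 h. IV dosing described at 2.00 mg/kg via tail vein, plasma sampled 0.083–24 h.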

[3] = system: liver gene expression (ACACA, ACLY, FASN, LSS, PNPLA3); assay: Liver gene expression in mice after oral administration; assay type: in vivo; conditions: vs vehicle
How it was run: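 Mice were dosed by oral gavage with compounds in 0.5% methylcellulose, with 5% N-methyl pyrrolidone added when needed, and unperfused livers were collected at 6 or 24 h. Liver RNA was reverse-transcribed with random primers and ACACA, ACLY, FASN, LSS and PNPLA3 were measured by qPCR. Fold change versus vehicle was derived by ΔΔCT, and the mean of the five genes is reported as Total Fold Change.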

[4] = Plasma and liver compound levels in mice after oral administration; assay type: in vivo
How it was run: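 Mice were dosed orally by gavage with compound in 0.5% methylcellulose (5% N-methyl pyrrolidone added when needed). Retro-orbital plasma and unperfused liver collected at 6 h or 24 h and stored at −80 °C for bioanalysis.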

Intravenous Delivery (IV) CL ([1]; IV, 2 mg/kg): 30.1 mL/min/kg
Intravenous Delivery (IV) T1/2 ([1]; IV, 2 mg/kg): 1.53 h
Intravenous Delivery (IV) Vd ([1]; IV, 2 mg/kg): 4.02 L/kg
% F (Bioavailability of oral delivery) ([1]; PO 10 mg/kg vs IV 2 mg/kg): 24%
Oral Administration (PO) AUC0-last ([1]; PO, 10 mg/kg): 1307
Oral Administration (PO) T1/2 ([1]; PO, 10 mg/kg): 5.1 h
Oral Administration (PO) Tmax ([1]; PO, 10 mg/kg): 1.67 h
% F (Bioavailability of oral delivery) [2]: 58%
Intravenous Delivery (IV) AUC0-last ([2]; iv, 2 mg/kg): 1900 ng·h/mL
Intravenous Delivery (IV) CL ([2]; iv, 2 mg/kg): 17.5 mL/min/kg
Intravenous Delivery (IV) T1/2 ([2]; iv, 2 mg/kg): 3.39 h
Intravenous Delivery (IV) Vd ([2]; iv, 2 mg/kg): 5.13 L/kg
Oral Administration (PO) AUC0-last ([2]; po, 10 mg/kg): 5400 ng·h/mL
Oral Administration (PO) T1/2 ([2]; po, 10 mg/kg): 4.72 h
Oral Administration (PO) Tmax ([2]; po, 10 mg/kg): 1 h
Liver ng/mg (6 h) ([4]; 10 mpk): 100 to 1000 ng/mg
Plasma ng/mL (6 h) ([4]; 10 mpk): <100 ng/mL
Liver ng/mg 24 h ([4]; 10 mpk): 100 to 1000 ng/mg
Plasma ng/mL (24 h) ([4]; 10 mpk): <100 ng/mL
Liver ng/mg (6 h) ([4]; 30 mpk): 100 to 1000 ng/mg
Plasma ng/mL (6 h) ([4]; 30 mpk): 100 to 1000 ng/mL
Liver ng/mg 24 h ([4]; 30 mpk): <100 ng/mg
Plasma ng/mL (24 h) ([4]; 30 mpk): <100 ng/mL
SMILES: CC(C)(C)c1cc(-c2cncc(-c3ccc(C(=O)N4CCC(O)CC4)cc3Cl)c2)ccn1 [Compound Z-725]
Total Gene FC Time (6 h) ([3]; 10 mpk): +++ (0-0.509 = +++)
Total Gene FC Time (24 h) ([3]; 10 mpk): + (>0.751 = +)
Total Gene FC Time (6 h) ([3]; 30 mpk): +++ (0-0.509 = +++)
Total Gene FC Time (24 h) ([3]; 30 mpk): + (>0.751 = +)
